Experimental data from patent US20250263436A1, “BROAD-SPECTRUM ANTIVIRAL DRUG FOR ENTEROVIRUS, AND APPLICATION” (WUHAN INSTITUTE OF VIROLOGY, CHINESE ACADEMY OF SCIENCES, priority 2020, published 2025).
Where “and” joins values, the source holds several entries; their conditions need not be identical. Equal entries are not always repeated.

Experiments:
[1] = molecular target: T1, EV71 2C protein (Human enterovirus 71, UniProt Q66478); assay: Inhibition of helicase activity of EV71 2C protein in vitro (dsRNA unwinding); assay type: biochemical; conditions: MBP-EV71 2C; dsRNA substrate; 37° C. 50 min
T1 construct: In vitro expression and purification of EV71 2C protein; made in house; host or cells: Sf9 (Spodoptera frugiperda) cells infected with recombinant baculovirus
T1 sequence (Q66478 1112-1440 limits assumed): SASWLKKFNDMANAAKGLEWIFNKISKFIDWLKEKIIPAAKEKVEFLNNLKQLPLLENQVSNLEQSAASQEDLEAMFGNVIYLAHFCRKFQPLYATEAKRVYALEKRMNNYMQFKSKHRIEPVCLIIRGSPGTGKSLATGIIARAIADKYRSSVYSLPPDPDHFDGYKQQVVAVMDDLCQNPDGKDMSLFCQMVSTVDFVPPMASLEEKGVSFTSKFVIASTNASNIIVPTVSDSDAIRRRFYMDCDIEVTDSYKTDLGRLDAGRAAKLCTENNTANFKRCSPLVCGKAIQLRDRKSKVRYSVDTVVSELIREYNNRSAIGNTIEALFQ
Procedure: (1) A strand labeled with HEX at a concentration of 0.2 pmol/μL was added with a complementary strand RNA at the same concentration to prepare a HEX-labeled double-stranded dsRNA substrate by annealing.
(2) Annealing process: the reaction system was kept at 75° C. for 3 min, cooled to 25° C. at a rate of 1° C. per minute, and then kept at 25° C. for 2 min.
(3) The target protein and the double-stranded substrate were prepared according to the standard unwinding experiment reaction system. 5 μg of polypeptide RQ and control TAT were added respectively, and single and double strands controls were set. The single strand sample was boiled at 75° C. for 3 min and then placed on ice for 2 min.
(4) The prepared system was mixed well and then placed at 37° C. for 50 min of reaction.
(5) A mixture obtained after the reaction was subjected to electrophoresis.
(6) Finally, Typhoon 9500 was used for direct scan to obtain a HEX signal.
During electrophoresis, the single strand ran faster than the double strand. Therefore, if the MBP-2C protein had helicase activity, it can unwind the double-stranded dsRNA substrate to release a single-stranded RNA, and then the lane would show two bands, upper and lower. The single-stranded RNA (lane 2) prepared by boiling at 75° C. was used as a positive control. The reaction without protein added (lane 1) was used as a negative control.

[2] = system: EV71; assay: Inhibition of EV71 in Vero cells (viral RNA, qRT-PCR); assay type: cell-based, enterovirus 71 (EV71); conditions: for Percentage of viral RNA in Vero cells (%): EV71, 24 h after infection
Procedure: (1) Different cells were plated in a 24-well plate.
(2) When the cells grew to a confluence of 70%-80%, the DMEM medium containing 10% serum was replaced with a DMEM medium containing 2% serum (the DMEM medium containing 2% serum was added in each well at an amount of 0.5 mL), and 5 μL of EV71 virus of 1×10^6 PFU/mL was added to each well.
(3) After 1 h, different polypeptides (RQ or control TAT) with final concentrations of 0.3125 μM, 0.625 μM, 1.25 μM, 2.5 μM, and 5 μM were added respectively. The group without polypeptide added was used as a control.
(4) The samples were collected 24 h after the infection of EV71 virus, and RNA was extracted with the total RNA extraction kit.
(5) The supernatant was discarded, then 350 μL of TRK lysate was added to each well, and the plate was put on a shaker for 5 min.
(6) 350 μL of 70% ethanol (DEPC) was added to each well, and then the plate was put on a shaker for 5 min.
(7) The solution in each well was transferred to a RNA extraction column for 1 min of centrifugation at 12000 g.
(8) The solution obtained in the recovery tube was reloaded on the column again for 1 min of centrifugation at 12000 g.
(9) RNA washing buffer 1 was added in the column for 30 s of centrifugation at 12000 g.
(10) RNA washing buffer 2 was added in the column for 1 min of centrifugation at 12000 g.
(11) Step (10) was repeated.
(12) The column alone was centrifuged at 12000 g for 2 min to completely remove the residual RNA washing buffer.
(13) 50 μL of DEPC water was added to the column for 2 min of centrifugation at 12000 g.
(14) 2 μL of RNA sample was subjected to a fluorescence quantitative experiment using the one step qRT-PCR kit.
(1) Vero E6 cells were plated in a 24-well plate.
(3) After 1 h, different polypeptides (LQ or SQ) with final concentrations of 0.3125 μM, 0.625 μM, 1.25 μM, 2.5 μM, and 5 μM were added respectively. The group without polypeptide added was used as a control.

[3] = system: EV71; assay: Inhibitory activity on EV71 in RD cells by CCK8 method; assay type: cell-based, enterovirus 71 (EV71); conditions: for Inhibition rate on EV71 virus (%): RD cells, 0.1 MOI, 24 h, CCK8
Procedure: (1) RD cells were plated in a 96-well plate at 100 μL per well.
(2) When the cells grew to a confluence of 70%-80%, the DMEM medium containing 10% serum was replaced with a DMEM medium containing 2% serum.
(§1) (3) The polypeptide drug was gradiently diluted with the DMEM containing 2% FBS into concentrations of 0.15625 μM, 0.3125 μM, 0.625 μM, 1.25 μM, 2.5 μM, and 5 μM, and then added to a new 96-well plate at 100 μL per well, with 3 replicate wells for each concentration.
(4) The diluted virus was added to the above wells at 100 μL per well. The wells with no drug and no virus added and the wells with no drug but virus added were set as controls respectively, with a final concentration of virus of 0.1 MOI.
(4) The mixture was transferred into the 96-well plate plated with cells for another 24 h of culture, and the inhibitory activity of the polypeptide on the virus was determined by a CCK8 kit.
(5) The inhibition rates of different concentrations of the polypeptides on virus infection were calculated according to a calculation formula of: inhibition rate of polypeptide=(well with drug-well with virus)×100%/(well with no drug-well with virus).
as §1, with “concentration. (4) The diluted virus was added to the above wells at 100 μL per well. The wells with no drug and no virus added and the wells with no drug but virus added were set as controls respectively, with a final concentration of virus of 0.1 MOI.” for “concentration.”

N=C(N)NCCC[C@H](NC(=O)[C@H](CCCNC(=N)N)NC(=O)[C@H](CCCNC(=N)N)NC(=O)[C@H](CCC(N)=O)NC(=O)[C@H](CCCNC(=N)N)NC(=O)[C@H](CCCNC(=N)N)NC(=O)[C@H](CCCCN)NC(=O)[C@H](CCCCN)NC(=O)[C@H](CCCNC(=N)N)NC(=O)CNC(=O)[C@@H](N)Cc1ccc(O)cc1)C(=O)O [TAT, YGRKKRRQRRR]
helicase activity of EV71 2C [1]: did not affect the helicase activity of 2C
Percentage of viral RNA in Vero cells (%) ([2]; polypeptide 0.3125 μM): 115.6133% and 93.75% and 91.92%
Percentage of viral RNA in Vero cells (%) ([2]; polypeptide 0.625 μM): 121.4818% and 94.87% and 149.0928%
Percentage of viral RNA in Vero cells (%) ([2]; polypeptide 1.25 μM): 111.6527% and 97.24% and 100.8214%
Percentage of viral RNA in Vero cells (%) ([2]; polypeptide 2.5 μM): 125.8799% and 103.6078% and 137.9907%
Percentage of viral RNA in Vero cells (%) ([2]; polypeptide 5 μM): 136.8661% and 104.0616% and 88.68%
anti-EV71 effect ([2]; Vero cells): no anti-EV71 effect
antiviral activity ([3]; EV71 in RD cells, CCK8 method): no antiviral activity
Inhibition rate on EV71 virus (%) ([3]; polypeptide 0.15625 μM): 1.38% and 5.231% and 2.294%
Inhibition rate on EV71 virus (%) ([3]; polypeptide 0.3125 μM): 2.463% and 5.242% and 6.282%
Inhibition rate on EV71 virus (%) ([3]; polypeptide 0.625 μM): 8.374% and 2.34% and 7.234%
Inhibition rate on EV71 virus (%) ([3]; polypeptide 1.25 μM): 8.365% and 3.237% and 6.203%
Inhibition rate on EV71 virus (%) ([3]; polypeptide 2.5 μM): 7.373% and 4.241% and 8.213%
